Measurements as given in EP1061896B1, “COSMETIC METHOD OF TREATING SKIN” (UNILEVER PLC, priority 1998, dated 1999).
Read-outs that look alike come from different tables or passages of the source.

Legend:
PGE2 [1] = assay: Fibroblast PGE2 assay, PMA-induced; type: cell-based; settings: human skin fibroblasts, N=4
Protocol: Intracellular adhesion molecules (ICAM) and PEG2 production by human skin fibroblasts can be induced by the inflammatory stimulus PMA (phorbal myristate acetate). PMA represents an external stressor which induces oxidative stress and inflammatory responses in cells. This model is used to model inflammation in vivo.
Primary human foreskin fibroblasts at passage 2 (P2) were seeded into 96-well plates at 10000 cells/well and maintained for 24 hours in an atmosphere of 5% carbon dioxide in Dulbeccos Modified Eagles Medium (DMEM) supplemented with 10% foetal calf serum. […] Phorbal myristate acetate (PMA) (Sigma) was added to the media and the cells incubated for a further 24 hours. […] The fibroblasts/media were then analysed as described below immediately or snap frozen in liquid nitrogen and stored at -70°C for future analysis. The cells were then counted and data from the dot-blot analysis subsequently standardised to cell number.
Prostaglandin E2 (PGE2) assay: Volumes of 50 µl culture medium were taken for PGE2 assay after gently shaking the culture plate. PGE2 levels in the medium were determined with a Biotrak PGE2 immunoassay kit (Amersham, UK). The assay is based on the competition between unlabelled PGE2 in the sample and a fixed quantity of horseradish peroxidase labelled PGE2 for a limited amount of fixed PGE2 specific antibody. Concentrations of unlabelled sample PGE2 are determined according to a standard curve which was obtained at the same time.

Keratinocytes [2] = assay: Keratinocyte SDS viability assay (Neutral Red method); type: cell-based; settings: 24 hours, n=8
Protocol: (§1) After incubating for 24 hours the medium was removed and the viability determined by the Neutral Red method.

PGE2 [3] = assay: Keratinocyte PGE2 assay (basal release, enzyme-linked immunoassay); type: cell-based; settings: 24 hours, unstimulated keratinocytes, n=4, Control 197.9
Protocol: This was then replaced with KGM without hydrocortisone for 24-48 hours. No petroselinic acid was added to the control cells. […] At the end of the incubation the medium was harvested and assayed for the basal release of the pro-inflammatory PGE2 by enzyme-linked immuno assay using a commercial PGE2 kit (Amersham, Buckinghamshire, England).
The anti-inflammatory potential of the test compounds were assessed by the ability of the compounds to reduce the basal levels of secreted PGE2 as compared to the control. Statistical significance was determined using the Student's t-test.

[4] = system: B16-F1 mouse melanoma cells; assay: Pigmentation assay (melanin in media, absorbance at 530 nm); type: cell-based; settings: 72 hours, n=4, read-out: Melanin in Media % Control
Protocol: (§2) • * Cell maintenance B16-F1 mouse melanoma cells (American Type Culture Collection, Maryland, USA) were maintained in 75 cm^2 culture flasks in RPMI 1640 medium (ICN-Flow, cat. no. 12-60-54) supplemented with L-glutamine (4 mM) and 10% foetal bovine serum (FBS) at 37°C in a water saturated, 5% CO2 in air atmosphere. Cells were passaged twice weekly. • * Pigmentation Assay Subconfluent B16 cells were seeded in 96 well microtiter plates at a density of 5000 cells/well and cultured overnight in DMEM (Life Technologies, NY) containing 10% foetal bovine serum and 1% penicillin/streptomycin without phenol red at 37°C under 5% CO2. After 24 hours, the media was replaced with fresh media containing the test materials or vehicle controls. Cells were incubated for 72 hours at which time melanin was visible in the control wells. Next, the melanin containing media from each well was transferred to a clean 96 well plate and quantified by reading the absorbance at 530 nm using a microplate spectrophotometer (Dynatech MR5000) and correcting for the baseline absorption of fresh medium. As the corrected absorption is proportional to the melanin concentration the percentage pigmentation for a skin lightening test substance can be calculated as: % pigmentation = (OD530 test/OD530 ref) x 100% [formula] where OD530 test and OD530 ref indicate the average corrected absorption of the medium from the wells with the test substance and that of the medium from the wells without the test substance. The percentage inhibition caused by the test substance is then 100 - % pigmentation. • * Cell viability assay Melanin production may be reduced by inhibition of melanogenesis but it may also be affected by cytotoxicity or cell proliferation. To test whether this occurred cell viability was tested by neutral red dye absorption. Neutral red is a water soluble dye that passes through the intact plasma membrane and becomes concentrated in the lysosomes in intact cells. Total neutral red dye uptake is proportional to the number of viable cells in culture. Immediately following the removal of medium for melanin analysis from the microtitre wells, 200 µl fresh prewarmed neutral red dye (ex. Sigma, UK, Cat. Nr 2889) at 25 µg/ml medium was applied to the cells and incubated for 3 hours as for cell maintenance. Dye which had not been taken up by the cells was removed by inversion of the plate and tapping on abscrbent paper. The cells were washed with 200 µl PBS, which was then removed again. 100 µl solvent (50% H2O, 49% ethanol, 1% acetic acid) was added. After 20 minutes at ambient temperature each plate was shaken for 5 seconds on a microtitre plate shaker. The absorption was measured as described above.

[5] = Cell viability assay by neutral red dye absorption in the pigmentation assay; type: cell-based; settings: mouse, b16-f1 cells, n=4, read-out: Neutral Red Cell Viability % Control
Protocol: as §2

Keratinocytes [6] = assay: Keratinocyte viability by neutral red uptake after the PGE2 assay; type: cell-based; settings: 24 hours, at the concentrations tested (0.1 and 1 µM)
Protocol: as §1
The cells were then tested for viability by the neutral red up-take method described in example 2 above.

procollagen-I = assay: Immunohistochemical analysis of forearm skin biopsies after topical treatment: procollagen-I expression; type: in vivo, human; settings: compared with placebo forearm
Text: (§3) Two groups of women were recruited with identical or nearly identical degrees of mild to moderate photodamage on each outer forearm. They were supplied with 0.05% retinoic acid in a moisturising base (Retinova®) and also with a colour matched moisturising cream with similar sensory characteristics (Dermacare® lotion), but no active ingredients, as a placebo control. Each participant of the two groups applied the Retinova® to one outer forearm and placebo (Dermacare®) to the other outer forearm. Group 1 applied the products daily to their outer forearms for 14 weeks and the Group 2 applied the products to their outer forearms for 28 weeks. At the end of the studies two full thickness 4mm punch biopsies were taken from the treated areas of each forearm. Immunohistochemical analysis of the biopsy tissue taken from the participants was performed to identify the effect of retinoic acid treatment on the expression of the skin extracellular matrix components, decorin and procollagen-I, as compared with the placebo treated forearms. The following procedure was followed:
(§4) Antibody dilution buffer for wax sections was composed of Tris Buffered Saline (TBS), 3% bovine serum albumin (BSA), 0.05% Triton X-100 and 0.05% sodium azide. […]

decorin = assay: Immunohistochemical analysis of forearm skin biopsies after topical treatment: decorin expression; type: in vivo, human; settings: compared with placebo forearm
Text: as §3, §4

[7] = Group 1 after 14 weeks, 16 participants, 0.05% retinoic acid (Retinova®) daily on outer forearm
[8] = Group 2 after 28 weeks, 15 participants, 0.05% retinoic acid (Retinova®) on outer forearm

CCCCCCCCCCCCCC(=O)O[C@@H]1[C@@H](C)[C@@]2(O)[C@@H](C=C(CO)C[C@]3(O)C(=O)C(C)=C[C@@H]23)[C@@H]2C(C)(C)[C@]12OC(C)=O [PMA, phorbal myristate acetate, reference compound]
PGE2 (PGE2 [1]; PMA (10nM) alone, Control 32±6): 2371 ± 241 pg/mL

CCCCCCCCCCC/C=C\CCCCC(=O)O [Petroselinic Acid, Petroselinic acid]
Keratinocyte viability % of control Mean (Keratinocytes [2]; SDS 2 µg/ml + PA 0.1 µM): 94.5 % of control | Keratinocyte viability % of control Mean (Keratinocytes [2]; SDS 2 µg/ml + PA 1.0 µM): 84.1 % of control | Keratinocyte viability % of control Mean (Keratinocytes [2]; SDS 2 µg/ml + PA 10 µM): 85.8 % of control | Keratinocyte PGE2 Levels Mean (PGE2 [3]; PA 0.1 µM): 150.1 pg/well | Keratinocyte PGE2 Levels Mean (PGE2 [3]; PA 1 µM): 117.8 pg/well | PGE2 (PGE2 [1]; PMA (10nM) + PA 0.1uM): 500 ± 12 pg/mL | PGE2 (PGE2 [1]; PMA (10nM) + PA 1uM): 486 ± 93 pg/mL | PGE2 (PGE2 [1]; PMA (10nM) + PA 10uM): 233 ± 139 pg/mL | PGE2 (PGE2 [1]; PMA (10nM) + PA 100uM): 117 ± 39 pg/mL | activity at 0.01 % ([4]; 0.01%): 79.5% | activity at 0.013 % ([4]; 0.013%): 40.4% | activity at 0.02 % ([4]; 0.02%): 55.3% | activity at 0.04 % ([4]; 0.04%): 3.9% | activity at 0.1 % ([4]; 0.1%): 19.3% | viability at 72 h ([5]; 0.01%): 105% | viability at 72 h ([5]; 0.013%): 105% | viability at 72 h ([5]; 0.02%): 103% | viability at 72 h ([5]; 0.04%): 69.9% | viability at 72 h ([5]; 0.1%): 1% | Cell viability (Keratinocytes [6]): not found to be adversely effected

CC1=C(/C=C/C(C)=C/C=C/C(C)=C/C(=O)O)C(C)(C)CCC1 [Retinoic Acid, retinoic acid]
No. of Participants showing marked increase in expression of procollagen-I (procollagen-I; [7]): 9 | No. of Participants showing marked increase in expression of procollagen-I (procollagen-I; [8]): 10 | No. of Participants showing marked increase in expression of decorin (decorin; [7]): 10 | No. of Participants showing marked increase in expression of decorin (decorin; [8]): 15

CCCCCCCCCCCCOS(=O)(=O)[O-].[Na+] [SDS, sodium dodecyl sulphate, reference compound]
Keratinocyte viability % of control Mean (Keratinocytes [2]; SDS 2 µg/ml alone (PA 0 µM)): 55.8 % of control
